Data: PubChem BioAssay (NCI)
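48-hour exposure; five concentrations; linearly interpolated endpoints. GI50: concentration for 50% inhibition of growth. At the TGI there is no net growth.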

Experiments:
Assay in all cases: NCI-60 cell line screen, 48 h
HOP-92 NSCLC = test system: HOP-92 NSCLC
HT29 colon = test system: HT29 colon
SK-OV-3 ovarian = test system: SK-OV-3 ovarian
HS 578T breast = test system: HS 578T breast
MCF7 breast = test system: MCF7 breast
OVCAR-3 ovarian = test system: OVCAR-3 ovarian
OVCAR-5 ovarian = test system: OVCAR-5 ovarian
EKVX NSCLC = test system: EKVX NSCLC
SN12C renal = test system: SN12C renal
786-0 renal = test system: 786-0 renal
MALME-3M melanoma = test system: MALME-3M melanoma
SK-MEL-28 melanoma = test system: SK-MEL-28 melanoma
SNB-19 CNS = test system: SNB-19 CNS
OVCAR-8 ovarian = test system: OVCAR-8 ovarian
NCI-H226 lung = test system: NCI-H226 lung
MOLT-4 leukemia = test system: MOLT-4 leukemia
SF-539 CNS = test system: SF-539 CNS
OVCAR-4 ovarian = test system: OVCAR-4 ovarian
PC-3 prostate = test system: PC-3 prostate
HCT-15 colon = test system: HCT-15 colon
A549 NSCLC = test system: A549 NSCLC
COLO 205 colon = test system: COLO 205 colon
NCI-H23 lung = test system: NCI-H23 lung
HCC-2998 colon = test system: HCC-2998 colon
SW-620 colon = test system: SW-620 colon
SR leukemia = test system: SR leukemia
HL-60(TB) leukemia = test system: HL-60(TB) leukemia
DU-145 prostate = test system: DU-145 prostate
UACC-62 melanoma = test system: UACC-62 melanoma
HOP-62 NSCLC = test system: HOP-62 NSCLC
BT-549 breast = test system: BT-549 breast
HCT-116 colon = test system: HCT-116 colon
KM12 colon = test system: KM12 colon
LOX IMVI melanoma = test system: LOX IMVI melanoma
SK-MEL-5 melanoma = test system: SK-MEL-5 melanoma
SK-MEL-2 melanoma = test system: SK-MEL-2 melanoma
K-562 leukemia = test system: K-562 leukemia
IGROV1 ovarian = test system: IGROV1 ovarian
M14 melanoma = test system: M14 melanoma
MDA-MB-231 breast = test system: MDA-MB-231 breast
NCI-H460 lung = test system: NCI-H460 lung
MDA-MB-435 = test system: MDA-MB-435
UACC-257 melanoma = test system: UACC-257 melanoma
RXF 393 renal = test system: RXF 393 renal
U251 CNS = test system: U251 CNS
NCI/ADR-RES ovarian = test system: NCI/ADR-RES ovarian
T-47D breast = test system: T-47D breast
CCRF-CEM leukemia = test system: CCRF-CEM leukemia
TK-10 renal = test system: TK-10 renal
SNB-75 CNS = test system: SNB-75 CNS
UO-31 renal = test system: UO-31 renal
ACHN renal = test system: ACHN renal
A498 renal = test system: A498 renal
SF-268 CNS = test system: SF-268 CNS
RPMI-8226 leukemia = test system: RPMI-8226 leukemia
SF-295 CNS = test system: SF-295 CNS
NCI-H522 lung = test system: NCI-H522 lung
CAKI-1 renal = test system: CAKI-1 renal

## COc1ccc(C2C(C#N)=C(N)Oc3c2sc2c(F)cccc32)cc1 (stereo unspecified)
HOP-92 NSCLC
  GI50: 4.32 µM
  TGI: 21.2 µM
HT29 colon
  GI50: 3.23 µM
  TGI: 11.1 µM
SK-OV-3 ovarian
  GI50: 4.35 µM
  TGI: 36.7 µM
HS 578T breast
  GI50: 2.81 µM
  TGI: 27 µM
MCF7 breast
  GI50: 0.711 µM
  TGI: 13.6 µM
OVCAR-3 ovarian
  GI50: 1.38 µM
  TGI: 4.94 µM
OVCAR-5 ovarian
  GI50: 8.53 µM
  TGI: 27.6 µM
EKVX NSCLC
  GI50: 4.7 µM
  TGI: 22.5 µM
SN12C renal
  GI50: 3.94 µM
  TGI: 16.5 µM
786-0 renal
  GI50: 3.34 µM
  TGI: 13 µM
MALME-3M melanoma
  GI50: 11.6 µM
  TGI: 26.3 µM
SK-MEL-28 melanoma
  GI50: 8.25 µM
  TGI: 23.2 µM
SNB-19 CNS
  GI50: 2.99 µM
  TGI: 16.8 µM
OVCAR-8 ovarian
  GI50: 3.11 µM
  TGI: 14.5 µM
NCI-H226 lung
  GI50: 14 µM
  TGI: 32.6 µM
MOLT-4 leukemia
  GI50: 2.62 µM
  TGI: 14 µM
SF-539 CNS
  GI50: 2.13 µM
  TGI: 6.24 µM
OVCAR-4 ovarian
  GI50: 8.95 µM
  TGI: 31 µM
PC-3 prostate
  GI50: 2.36 µM
  TGI: 11.7 µM
HCT-15 colon
  GI50: 1.73 µM
  TGI: 12.4 µM
A549 NSCLC
  GI50: 3.12 µM
  TGI: 22.3 µM
COLO 205 colon
  GI50: 2.62 µM
  TGI: 8.18 µM
NCI-H23 lung
  GI50: 3.6 µM
  TGI: 21.8 µM
HCC-2998 colon
  GI50: 3.04 µM
  TGI: 14 µM
SW-620 colon
  GI50: 1.82 µM
  TGI: 15.6 µM
SR leukemia
  GI50: 0.706 µM
  TGI: 14.2 µM
HL-60(TB) leukemia
  GI50: 1.75 µM
  TGI: 6.5 µM
DU-145 prostate
  GI50: 2.96 µM
  TGI: 11.4 µM
UACC-62 melanoma
  GI50: 2.41 µM
  TGI: 18.9 µM
HOP-62 NSCLC
  GI50: 1.75 µM
  TGI: 15.9 µM
BT-549 breast
  GI50: 4.65 µM
  TGI: 24 µM
HCT-116 colon
  GI50: 2.7 µM
  TGI: 12.1 µM
KM12 colon
  GI50: 1.62 µM
  TGI: 17.5 µM
LOX IMVI melanoma
  GI50: 2.4 µM
  TGI: 12.4 µM
SK-MEL-5 melanoma
  GI50: 3.93 µM
  TGI: 16.3 µM
SK-MEL-2 melanoma
  GI50: 3 µM
  TGI: 18.6 µM
K-562 leukemia
  GI50: 0.493 µM
  TGI: 18.2 µM
IGROV1 ovarian
  GI50: 2.9 µM
  TGI: 19.5 µM
M14 melanoma
  GI50: 1.34 µM
  TGI: 4.54 µM
MDA-MB-231 breast
  GI50: 3.77 µM
  TGI: 20.3 µM
NCI-H460 lung
  GI50: 2.59 µM
  TGI: 11.9 µM
MDA-MB-435
  GI50: 0.315 µM
  TGI: 1.4 µM
UACC-257 melanoma
  GI50: 14.6 µM
  TGI: 88.8 µM
RXF 393 renal
  GI50: 1.81 µM
  TGI: 5.77 µM
U251 CNS
  GI50: 2.74 µM
  TGI: 11.8 µM
NCI/ADR-RES ovarian
  GI50: 0.881 µM
  TGI: 5.96 µM
T-47D breast
  GI50: 2.57 µM
  TGI: 25.9 µM
CCRF-CEM leukemia
  GI50: 1.7 µM
  TGI: 12.5 µM
TK-10 renal
  GI50: 5.69 µM
  TGI: 23.5 µM
SNB-75 CNS
  GI50: 2.42 µM
  TGI: 14.5 µM
UO-31 renal
  GI50: 4.66 µM
  TGI: 17.7 µM
ACHN renal
  GI50: 6.08 µM
  TGI: 21.4 µM
A498 renal
  GI50: 2.1 µM
  TGI: 15.6 µM
SF-268 CNS
  GI50: 3.95 µM
  TGI: 19.6 µM
RPMI-8226 leukemia
  GI50: 2.66 µM
  TGI: 12.5 µM
SF-295 CNS
  GI50: 2.1 µM
  TGI: 11.5 µM
NCI-H522 lung
  GI50: 0.799 µM
  TGI: 6.35 µM

## CN(C)c1nc(N)nc(CCl)n1
HOP-92 NSCLC
  TGI: 45.6 µM
HT29 colon
  TGI: > 100 µM
SK-OV-3 ovarian
  TGI: > 100 µM
HS 578T breast
  TGI: > 100 µM
MCF7 breast
  TGI: > 100 µM
OVCAR-3 ovarian
  TGI: 49 µM
OVCAR-5 ovarian
  TGI: > 100 µM
EKVX NSCLC
  TGI: 41.6 µM
SN12C renal
  TGI: > 100 µM
786-0 renal
  TGI: 58.3 µM
SK-MEL-28 melanoma
  TGI: > 100 µM
SNB-19 CNS
  TGI: > 100 µM
OVCAR-8 ovarian
  TGI: > 100 µM
NCI-H226 lung
  TGI: > 100 µM
MOLT-4 leukemia
  TGI: > 100 µM
SF-539 CNS
  TGI: 60.2 µM
OVCAR-4 ovarian
  TGI: 38.2 µM
PC-3 prostate
  TGI: > 100 µM
HCT-15 colon
  TGI: 93 µM
CAKI-1 renal
  TGI: 18 µM
A549 NSCLC
  TGI: > 100 µM
COLO 205 colon
  TGI: 61.8 µM
NCI-H23 lung
  TGI: 68.9 µM
HCC-2998 colon
  TGI: > 100 µM
SW-620 colon
  TGI: 87.7 µM
SR leukemia
  TGI: 65.8 µM
HL-60(TB) leukemia
  TGI: 78.2 µM
DU-145 prostate
  TGI: > 100 µM
UACC-62 melanoma
  TGI: 41.5 µM
HOP-62 NSCLC
  TGI: 46.8 µM
BT-549 breast
  TGI: > 100 µM
HCT-116 colon
  TGI: > 100 µM
KM12 colon
  TGI: > 100 µM
LOX IMVI melanoma
  TGI: 21.9 µM
SK-MEL-5 melanoma
  TGI: 90.6 µM
SK-MEL-2 melanoma
  TGI: > 100 µM
K-562 leukemia
  TGI: 84.4 µM
IGROV1 ovarian
  TGI: 35 µM
M14 melanoma
  TGI: > 100 µM
MDA-MB-231 breast
  TGI: 72.4 µM
NCI-H460 lung
  TGI: > 100 µM
MDA-MB-435
  TGI: > 100 µM
UACC-257 melanoma
  TGI: > 100 µM
RXF 393 renal
  TGI: > 100 µM
U251 CNS
  TGI: > 100 µM
NCI/ADR-RES ovarian
  TGI: 86.8 µM
T-47D breast
  TGI: > 100 µM
CCRF-CEM leukemia
  TGI: 58.6 µM
TK-10 renal
  TGI: > 100 µM
SNB-75 CNS
  TGI: 11.3 µM
UO-31 renal
  TGI: 26.1 µM
ACHN renal
  TGI: 39.7 µM
A498 renal
  TGI: 70.8 µM
SF-268 CNS
  TGI: > 100 µM
RPMI-8226 leukemia
  TGI: > 100 µM
SF-295 CNS
  TGI: > 100 µM
NCI-H522 lung
  TGI: 25 µM
